Results published in US5858684A, “Method of screening calcium receptor-active molecules” (priority 1995, dated 1999).
Entries after “also recorded” stand apart in the source; their conditions may differ.

Columns and labels:
[1] = cited from earlier work
[2] = serum albumin and phosphate in rats; assay type: in vivo, rat; settings: any dose examined
Method: (§1) Compounds shown to activate the bovine parathyroid cell calcium receptor in vitro were tested for hypocalcemic activity in vivo. Male Sprague-Dawley rats (200 g) were maintained on a low calcium diet for one week prior to receiving test substance or vehicle as control. Blood was collected from the tail vein three hours after the intraperitoneal administration of NPS 467. […] Serum total calcium, albumin and phosphate were measured by techniques well known in the art.

circulating PTH in rats = assay type: in vivo, rat
[3] = serum/blood ionized Ca2+ in rats; assay type: in vivo, rat; settings: i.p.
Method: as §1
Rats (male, Sprague-Dawley, 250-300 g) were fed standard rat chow and fasted overnight prior to the experiment. NPS R-467 was suspended in corn oil and administered as a single oral dose through a gavage needle. Three hours later a sample of blood was taken from the tail vein and assessed for ionized Ca^2+ levels.

[4] = biological target: T1, bovine parathyroid cell calcium receptor (BoPCaR 1) (Bos taurus, UniProt P35384); assay: inositol 1,4,5-triphosphate in Xenopus oocytes expressing BoPCaR 1; assay type: cell-based; settings: 10 μg/ml, 48 hours
T1 construct: Xenopus oocytes were injected with BoPCaR 1, the 5.3 Kb cDNA encoding a bovine parathyroid cell calcium receptor; expressed in transfected cells; host or cells: Xenopus laevis oocytes injected with cRNA/cDNA of BoPCaR 1
T1 sequence (P35384 20-1085): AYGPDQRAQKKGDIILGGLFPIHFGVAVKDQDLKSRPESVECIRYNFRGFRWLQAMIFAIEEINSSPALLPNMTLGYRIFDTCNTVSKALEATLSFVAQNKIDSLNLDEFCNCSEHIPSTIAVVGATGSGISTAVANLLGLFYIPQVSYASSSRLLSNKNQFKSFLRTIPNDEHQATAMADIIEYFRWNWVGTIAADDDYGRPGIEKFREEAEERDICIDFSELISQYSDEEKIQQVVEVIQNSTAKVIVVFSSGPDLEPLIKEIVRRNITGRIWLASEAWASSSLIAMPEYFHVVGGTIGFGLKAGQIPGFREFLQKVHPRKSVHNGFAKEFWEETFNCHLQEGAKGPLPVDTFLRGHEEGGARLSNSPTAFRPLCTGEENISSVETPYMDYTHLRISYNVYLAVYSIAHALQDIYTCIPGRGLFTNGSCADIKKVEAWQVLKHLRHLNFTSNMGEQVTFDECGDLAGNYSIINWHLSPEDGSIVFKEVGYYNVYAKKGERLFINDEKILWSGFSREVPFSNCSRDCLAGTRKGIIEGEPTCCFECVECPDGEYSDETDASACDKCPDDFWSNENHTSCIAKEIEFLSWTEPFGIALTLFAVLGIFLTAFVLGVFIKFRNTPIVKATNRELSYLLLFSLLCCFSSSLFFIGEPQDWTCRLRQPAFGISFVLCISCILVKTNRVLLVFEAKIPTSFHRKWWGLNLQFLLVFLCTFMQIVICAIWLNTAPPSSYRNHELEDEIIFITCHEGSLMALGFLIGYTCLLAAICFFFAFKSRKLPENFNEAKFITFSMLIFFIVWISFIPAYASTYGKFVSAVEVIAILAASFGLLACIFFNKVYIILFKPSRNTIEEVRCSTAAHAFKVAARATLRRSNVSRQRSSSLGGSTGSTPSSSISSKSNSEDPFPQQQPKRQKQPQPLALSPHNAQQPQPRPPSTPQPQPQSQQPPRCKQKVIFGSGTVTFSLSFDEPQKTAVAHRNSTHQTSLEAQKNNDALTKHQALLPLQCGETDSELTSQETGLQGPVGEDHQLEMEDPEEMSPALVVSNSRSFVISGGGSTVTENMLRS
Source text: These responses are mediated by the following series of biochemical events:
(1) Activation of phospholipase C by a pertussis toxin-sensitive guanine nucleotide regulatory (G) protein resulting in 4-7 fold increases in the levels of inositol 1,4,5-triphosphate (IP3).

[5] = system: parathyroid cell calcium receptor; assay type: cell-based
Method: For example, bovine parathyroid cells loaded with fura-2 are initially suspended in buffer containing 0.5 mM CaCl2. A test substance is added to the cuvette in a small volume (5-15 μl) and changes in the fluorescence signal are measured. Cumulative increases in the concentration of the test substance are made in the cuvette until some predetermined concentration is achieved or no further changes in fluorescence are noted.
This section describes procedures used to obtain and treat parathyroid cells from calves and humans. […] Human parathyroid glands, were obtained from patients undergoing surgical removal of parathyroid tissue for primary or uremic hyperparathyroidism (uremic HPT), and were treated similarly to bovine tissue.
Glands were trimmed of excess fat and connective tissue and then minced with fine scissors into cubes approximately 2-3 mm on a side. Dissociated parathyroid cells were prepared by collagenase digestion and then purified by centrifugation in Percoll buffer. The resultant parathyroid cell preparation was essentially devoid of red blood cells, adipocytes, and capillary tissue as assessed by phase contrast microscopy and Sudan black B staining. Dissociated and purified parathyroid cells were present as small clusters containing 5 to 20 cells.
The cells were then pelleted, resuspended in the same buffer, but lacking the ester, and incubated a further 15 minutes at 37° C. The cells were subsequently washed twice with PCB containing 0.5 mM CaCl2 and 0.5% BSA and maintained at room temperature (about 20° C.). Immediately before use, the cells were diluted five-fold with prewarmed 0.5 mM CaCl2 -PCB to obtain a final BSA concentration of 0.1%. The concentration of cells in the cuvette used for fluorescence recording was 1-2×10^6 /ml.
The fluorescence of indicator-loaded cells was measured at 37° C. in a spectrofluorimeter (Biomedical Instrumentation Group, University of Pennsylvania, Philadelphia, Pa.) equipped with a thermostated cuvette holder and magnetic stirrer using excitation and emission wavelengths of 340 and 510 nm, respectively. […] Leakage of dye is dependent on temperature and most occurs within the first 2 minutes after warming the cells in the cuvette. Dye leakage increases only very slowly thereafter. To correct the calibration for dye leakage, cells were placed in the cuvette and stirred at 37° C. for 2-3 minutes. The cell suspension was then removed, the cells pelleted, and the supernatant returned to a clean cuvette. […] This estimate was subtracted from the apparent Fmin.
Dissociated bovine parathyroid cells were purified on gradients of Percoll and cultured overnight in serum-free medium.

[6] = system: inositol phosphate formation in bovine parathyroid cells; assay: inositol phosphate formation in bovine parathyroid cells; assay type: cell-based
Method: After 30 seconds, the reaction was terminated by the addition of CHCl3 :MeOH:HCl and IP1 (circles) and IP3 (triangles) separated by anion exchange chromatography. Each point is the mean of 2 experiments, each performed in triplicate.
This section describes procedures measuring inositol phosphate formation. Membrane phospholipids were labeled by incubating parathyroid cells with 4 μCi/ml ^3 H-myo-inositol for 20-24 hours. Cells were then washed and resuspended in PCB containing 0.5 mM CaCl2 and 0.1% BSA. Incubations were performed in microfuge tubes in the absence or presence of various concentrations of organic polycation for different times. Reactions were terminated by the addition of 1 ml chloroform-methanol-12N HCl (200:100:1; v/v/v). Aqueous phytic acid hydrolysate (200 μl; 25 μg phosphate/tube). The tubes were centrifuged and 600 μl of the aqueous phase was diluted into 10 ml water.
Inositol phosphates were separated by ion-exchange chromatography using AG1-X8 in either the chloride- or formate-form. When only IP3 levels were to be determined, the chloride-form was used, whereas the formate form was used to resolve the major inositol phosphates (IP3, IP2, and IP1). For determination of just IP3, the diluted sample was applied to the chloride-form column and the column was washed with 10 ml 30 mM HCl followed by 6 ml 90 mM HCl and the IP3 was eluted with 3 ml 500 mM HCl. The last eluate was diluted and counted. For determination of all major inositol phosphates, the diluted sample was applied to the formate-form column and IP1, IP2, and IP3 eluted sequentially by increasing concentrations of formate buffer. The eluted samples from the formate columns were rotary evaporated, the residues brought up in cocktail, and counted.

[7] = system: cyclic AMP formation in bovine parathyroid cells; assay type: cell-based
Method: Cells were incubated as above for PTH secretion studies and at the end of the incubation, a 0.15-ml sample was taken and transferred to 0.85 ml of hot (70° C.) water and heated at this temperature for 5-10 minutes. The tubes were subsequently frozen and thawed several times and the cellular debris sedimented by centrifugation. Portions of the supernatant were acetylated and cyclic AMP concentrations determined by radioimmunoassay.
Each value is the mean±SEM of three experiments.

[8] = system: PTH secretion from bovine parathyroid cells; assay: PTH secretion from bovine parathyroid cells; assay type: cell-based
Method: PTH secretion was measured by first suspending cells in PCB containing 0.5 mM CaCl2 and 0.1% BSA.

net positive charge = assay type: physicochemical

## NCCCC[C@H](N)C(=O)O [lysine]
[1]
  interaction with phospholipid vesicles: not interacting to a significant extent

## COc1cccc(C(C)NCCCc2ccccc2)c1 (racemic) [NPS 467]
[2]
  serum albumin or phosphate levels: no change in serum albumin or phosphate levels
Circulating PTH in rats
  circulating levels of PTH: dose-dependent reduction in circulating levels of PTH
[3]; low calcium diet, 3 hours after dosing, rats
  serum or blood Ca2+: dose-dependent reduction in serum or whole blood
[3]; returned toward control levels after 24 hours
  time of maximal hypocalcemic effect: maximal within three hours

## pertussis toxin
[4]
  inhibition of the increase in IP3 by pertussis toxin: 75%

## protamine
[5]
  increase in [Ca2+]i / mobilization of intracellular Ca2+: evoked rapid and transient increases
[6]
  formation of inositol phosphates: increases the formation of inositol phosphates
  onset of increase in IP3 formation: ≤ 30 s
[7]
  isoproterenol-induced cyclic AMP: depressed isoproterenol-induced increases
[8]; bovine parathyroid cells
  inhibition of PTH secretion: inhibit PTH secretion; also recorded: inhibited PTH secretion to the same extent
Net positive charge
  net positive charge: +21

## CCCCCCCCCCCCCC(=O)O[C@@H]1[C@@H](C)[C@@]2(O)[C@@H](C=C(CO)C[C@]3(O)C(=O)C(C)=C[C@@H]23)[C@@H]2C(C)(C)[C@]12OC(C)=O [PMA, phorbol myristate acetate]
[5]; 100 nM PMA
  shift of concentration-response curve for [Ca2+]i: shifts to the right
[6]; 100 nM PMA, 5 minutes
  IP1 formation evoked by extracellular Ca2+ or spermine: depresses the formation of IP1
[8]; 100 nM PMA
  shift of concentration-response curve for PTH secretion: shifts to the right
